Assay results published in the NIST ThermoML archive (doi:10.1007/s10765-005-5567-5).
Numbers after ± are expanded uncertainties.

Assay: mn = molality of the nth substance listed, in mol/kg
Conditions: Liquid; for viscosity: Capillary tube (Ostwald / Ubbelohde) method; for thermal conductivity: Coaxial cylinder method

O=S(=O)([O-])[O-].[K+].[K+] [potassium sulfate] + O
Conditions	thermal conductivity, 10000 kPa [W/m/K]	thermal conductivity, 30000 kPa [W/m/K]	viscosity, 10 kPa [mPa·s]	viscosity, 20 kPa [mPa·s]	viscosity, 30 kPa [mPa·s]
397.25 K, m1 = 0.305	–	–	–	0.2531 ± 0.0079	0.2565 ± 0.008
398.55 K, m1 = 0.0658	–	–	0.2289 ± 0.0071	0.2321 ± 0.0072	0.236 ± 0.0073
422.05 K, m1 = 0.407	–	–	0.2131 ± 0.0066	0.2154 ± 0.0067	0.2189 ± 0.0068
423 K, m1 = 0.499	0.678 ± 0.019	0.69 ± 0.019	–	–	–
423.3 K, m1 = 0.782	0.671 ± 0.019	0.684 ± 0.019	–	–	–
423.55 K, m1 = 0.305	–	–	0.204 ± 0.0064	0.2068 ± 0.0064	0.2096 ± 0.0065
423.6 K, m1 = 0.239	0.683 ± 0.019	0.696 ± 0.02	–	–	–
423.85 K, m1 = 0.0658	–	–	0.1881 ± 0.0059	0.1926 ± 0.006	0.196 ± 0.0061
425.45 K, m1 = 0.2055	–	–	0.1946 ± 0.0061	0.1974 ± 0.0062	0.2 ± 0.0062
446.85 K, m1 = 0.407	–	–	0.1811 ± 0.0056	0.184 ± 0.0057	0.1867 ± 0.0058
447.35 K, m1 = 0.0658	–	–	0.1613 ± 0.0051	0.1645 ± 0.0052	0.166 ± 0.0052
448.1 K, m1 = 0.782	0.665 ± 0.019	0.681 ± 0.019	–	–	–
448.35 K, m1 = 0.2055	–	–	0.1679 ± 0.0052	0.1705 ± 0.0053	0.1732 ± 0.0054
448.55 K, m1 = 0.305	–	–	0.1735 ± 0.0054	0.1769 ± 0.0055	0.179 ± 0.0056
448.7 K, m1 = 0.239	0.678 ± 0.019	0.691 ± 0.019	–	–	–
449.8 K, m1 = 0.499	0.672 ± 0.019	0.686 ± 0.019	–	–	–
470.75 K, m1 = 0.407	–	–	0.1586 ± 0.005	0.1605 ± 0.005	0.1641 ± 0.0051
472.05 K, m1 = 0.0658	–	–	0.1403 ± 0.0044	0.1436 ± 0.0045	0.146 ± 0.0046
472.9 K, m1 = 0.499	0.659 ± 0.019	0.676 ± 0.019	–	–	–
473.4 K, m1 = 0.239	0.665 ± 0.019	0.681 ± 0.019	–	–	–
473.8 K, m1 = 0.782	0.652 ± 0.018	0.671 ± 0.019	–	–	–
475.85 K, m1 = 0.305	–	–	0.1492 ± 0.0047	0.1521 ± 0.0048	0.1545 ± 0.0048
477.45 K, m1 = 0.2055	–	–	0.143 ± 0.0045	0.1456 ± 0.0046	0.1482 ± 0.0047
496.35 K, m1 = 0.0658	–	–	0.1244 ± 0.0039	0.1276 ± 0.004	0.13 ± 0.0041
497.45 K, m1 = 0.2055	–	–	0.1294 ± 0.0041	0.1322 ± 0.0042	0.1348 ± 0.0042
498.3 K, m1 = 0.499	0.639 ± 0.018	0.657 ± 0.018	–	–	–
498.5 K, m1 = 0.239	0.644 ± 0.018	0.664 ± 0.019	–	–	–
498.55 K, m1 = 0.407	–	–	0.1388 ± 0.0044	0.1409 ± 0.0044	0.1444 ± 0.0045
498.6 K, m1 = 0.782	0.632 ± 0.018	0.65 ± 0.018	–	–	–
499.95 K, m1 = 0.305	–	–	0.1332 ± 0.0042	0.1369 ± 0.0043	0.14 ± 0.0044
523.05 K, m1 = 0.2055	–	–	0.1162 ± 0.0037	0.1191 ± 0.0038	0.1219 ± 0.0039
523.2 K, m1 = 0.499	0.61 ± 0.017	0.63 ± 0.018	–	–	–
523.3 K, m1 = 0.239	0.617 ± 0.017	0.637 ± 0.018	–	–	–
523.85 K, m1 = 0.407	–	–	0.1248 ± 0.0039	0.1286 ± 0.0041	0.1307 ± 0.0041
523.9 K, m1 = 0.782	0.602 ± 0.017	0.623 ± 0.018	–	–	–
524.45 K, m1 = 0.0658	–	–	0.1097 ± 0.0035	0.1135 ± 0.0036	0.116 ± 0.0037
527.35 K, m1 = 0.305	–	–	0.1185 ± 0.0038	0.1216 ± 0.0039	0.1243 ± 0.0039
541.55 K, m1 = 0.407	–	–	0.1171 ± 0.0037	0.12 ± 0.0038	0.1236 ± 0.0039
545.05 K, m1 = 0.0658	–	–	0.1008 ± 0.0032	0.1045 ± 0.0033	0.1072 ± 0.0034
547.9 K, m1 = 0.239	0.584 ± 0.016	0.61 ± 0.017	–	–	–
548.2 K, m1 = 0.499	0.577 ± 0.016	0.604 ± 0.017	–	–	–
548.45 K, m1 = 0.305	–	–	0.1087 ± 0.0035	0.1119 ± 0.0036	0.115 ± 0.0037
548.5 K, m1 = 0.782	0.57 ± 0.016	0.598 ± 0.017	–	–	–
550.55 K, m1 = 0.2055	–	–	0.1039 ± 0.0033	0.1072 ± 0.0034	0.1105 ± 0.0035
571.55 K, m1 = 0.0658	–	–	0.0902 ± 0.0029	0.094 ± 0.003	0.0972 ± 0.0031
573.2 K, m1 = 0.499	0.534 ± 0.015	0.568 ± 0.016	–	–	–
573.2 K, m1 = 0.782	0.525 ± 0.015	0.56 ± 0.016	–	–	–
573.35 K, m1 = 0.305	–	–	0.0976 ± 0.0031	0.1016 ± 0.0033	0.1035 ± 0.0033
573.8 K, m1 = 0.239	0.54 ± 0.015	0.574 ± 0.016	–	–	–
574.35 K, m1 = 0.2055	–	–	0.094 ± 0.003	0.0973 ± 0.0031	0.1014 ± 0.0033
575.25 K, m1 = 0.407	–	–	0.1021 ± 0.0033	0.1067 ± 0.0034	0.1102 ± 0.0035
